Patent publication US20030149084A1, “Cytostatic agents” (priority 1998, published 2003)

What was measured:
[1] = test system: human histiocytic lymphoma cell line (U937); experiment: U937 cell proliferation assay (methyl-3H thymidine incorporation); assay type: cell-based; details: for % of Control methyl-^3H Thymidine Incorporation / activity at 6 µM: test compound 6 μM, 72 hours in culture, 3 hours pulse, control DMSO 0.08%, n=6; for activity at 6 µM: Homo sapiens, U-937, U937 cells
Experimental: The compounds of examples 1 to 10 were tested the following cell proliferation assay, to determine their respective capacities to inhibit proliferation.
A human histiocytic lymphoma cell line (U937) was seeded into 30 mm^2 tissue culture wells, in the appropriate culture medium supplemented with 10% fetal calf serum at a density of 250 cells/mm^2. Six hours later the test compounds were added in the same culture medium to the cells to give a final concentration of 6 μM. Control wells contained cells supplemented with the same culture medium containing the equivalent amount of drug vehicle, which in this case was DMSO at a final concentration of 0.08%. After 72 hours in culture the cells were pulsed for 3 hours with methyl-^3H Thymidine (20 μCi/ml) and then harvested onto filter mats and DNA associated radioactivity counted. Results are expressed as percentage of control methyl-^3H Thydimine incorporation (n=6±1 stdv).

Question: Which “% of Control methyl-^3H Thymidine Incorporation” value ([1]; U937 cells, 6 µM) does the source give for `O=CN(O)CC(Cc1ccccc1)C(=O)N[C@@H](Cc1ccccc1)C(=O)OC1CCCC1` (single isomer, unassigned) [Example 1, diastereomer A, 2S-[2-benzyl-3-(formyl-hydroxy-amino)propionylamino]-3-phenyl-propionic acid cyclopentyl ester] here?
Answer: 0%

Question: Which “% of Control methyl-^3H Thymidine Incorporation” value ([1]; U937 cells, 6 µM) does the source give for `O=CN(O)CC(Cc1ccccc1)C(=O)N[C@@H](Cc1ccccc1)C(=O)OC1CCCC1` (single isomer, unassigned) [Example 1, diastereomer B, 2S-[2-benzyl-3-(formyl-hydroxy-amino)propionylamino]-3-phenyl-propionic acid cyclopentyl ester] here?
Answer: 73%

Question: For `CC(C)C[C@@H](C(=O)N[C@@H](Cc1ccccc1)C(=O)OC1CCCC1)C(C)N(O)C=O` (single isomer, unassigned) [Example 2, diastereomer A], which activity at 6 µM [1] is on record?
Answer: 21%

Question: For `CC(C)C[C@@H](C(=O)N[C@@H](Cc1ccccc1)C(=O)OC1CCCC1)C(C)N(O)C=O` (single isomer, unassigned) [Example 2, diastereomer B], which “% of Control methyl-^3H Thymidine Incorporation” value ([1]; U937 cells, 6 µM) is on record?
Answer: 17%

Question: With `O=c1[nH]cc(F)c(=O)[nH]1` [5-fluorouracil, reference compound] as the molecule, how does the “activity in the U937 assay, % of that observed with the vehicle alone” value ([1]; U937 cells, 6 μM, comparison compound) read?
Answer: 50%

Question: For `CCCC[C@H](CN(O)C=O)C(=O)N[C@H](C(=O)OC1CCCC1)C(C)(C)C` [Example 3, 2S-{2R-[(Formyl-hydroxy-amino)-methyl]-hexanoylamino}-3,3-dimethyl Butyric Acid Cyclopentyl Ester], which activity at 6 µM [1] is on record?
Answer: 80%

Question: With `CCCC[C@H](CN(O)C=O)C(=O)N[C@@H](Cc1ccccc1)C(=O)OC1CCCC1` [Example 4, S-{2R-[(Formyl-hydroxy-amino)-methyl]-hexanoylamino}-3-phenyl-propionic Acid Cyclopentyl Ester] as the molecule, how does the activity at 6 µM [1] read?
Answer: 0%

Question: Which results are given for `CCCC[C@H](CN(O)C=O)C(=O)N[C@H](C(=O)OC)C(C)(C)C` [Example 5, 2S-{2R-[(Formyl-hydroxy-amino)-methyl]-hexanoylamino}-3,3-dimethyl Butyric Acid Methyl Ester]?
Answer: melting point: 63.5 to 64.5 °C; activity at 6 µM [1]: 86%

Question: Which “% of Control methyl-^3H Thymidine Incorporation” value ([1]; U937 cells) does the source give for `CCCC[C@H](CN(O)C=O)C(=O)N[C@H](C(=O)OC1CCCC1)C(C)C` [Example 6, 2S-{2R-[(Formyl-hydroxy-amino)-methyl]-hexanoylamino}-3-methyl Butyric Acid Cyclo-Pentyl Ester] here?
Answer: 0%

Question: For `CCCC[C@H](CN(O)C=O)C(=O)N[C@@H](Cc1ccccc1)C(=O)OC` [Example 7], which activity at 6 µM [1] is on record?
Answer: 0%

Question: For `CCCC[C@H](CN(O)C=O)C(=O)N[C@@H](Cc1ccccc1)C(=O)OCC` [Example 8, 2S-{2R-[(Formyl-hydroxy-amino)-methyl]-hexanoylamino)-3-phenyl-propionic Acid Ethyl Ester], which activity at 6 µM [1] is on record?
Answer: 0%

Question: For `CCCC[C@H](CN(O)C=O)C(=O)N[C@H](C(=O)OC(C)C)C(C)(C)C` [Example 9, 2S-{2R-[(Formyl-hydroxy-amino)-methyl]-hexanoylamino}-3,3-dimethyl Butyric Acid Iso-Propyl Ester], which activity at 6 µM [1] is on record?
Answer: 81%

Question: Which results are given for `CCCC[C@H](CN(O)C=O)C(=O)N[C@H](C(=O)OCC)c1ccccc1` [Example 10, 2S-{2R-[(Formyl-hydroxy-amino)-methyl]-hexanoylamino}-2-phenyl Acetic Acid Ethyl Ester]?
Answer: melting point: 134 to 136 °C; activity at 6 µM [1]: 7%

Question: What does the source list for `CCCC[C@H](CN(O)C=O)C(=O)N[C@H](C(=O)OC(C)C)c1ccccc1` [Example 11, S-{2R-[(Formyl-hydroxy-amino)-methyl]-hexanoylamino}-2-phenyl Acetic Acid Iso-Propyl Ester]?
Answer: melting point: 142 to 145 °C; activity at 6 µM [1]: 36%

Question: With `CCCC[C@H](CN(O)C=O)C(=O)N[C@H](C(=O)OCC)C(C)(C)C` [Example 12, 2S-{2R-[(Formyl-hydroxy-amino)-methyl]-hexanoylamino}-3,3-dimethyl Butyric Acid Ethyl Ester] as the molecule, how does the melting point read?
Answer: 85 to 87 °C

Question: And the activity at 6 µM [1]?
Answer: 77%

Question: With `CCCC[C@H](CN(O)C=O)C(=O)N[C@H](C(=O)OC1CCCC1)c1ccccc1` [Example 13, S-{2R-[(Formyl-hydroxy-amino)-methyl]-hexanoylamino}-2-phenyl Acetic Acid Cyclo-Pentyl Ester] as the molecule, how does the melting point read?
Answer: 119 to 120 °C

Question: Which activity at 6 µM [1] does the source give for `CCCC[C@H](CN(O)C=O)C(=O)N[C@H](C(=O)OC1CCC1)C(C)(C)C` [Example 14, 2S-{2R-[(Formyl-hydroxy-amino)-methyl]-hexanoylamino}-3,3-dimethyl Butyric Acid Cyclobutyl Ester] here?
Answer: 74%

Question: Which activity at 6 µM [1] does the source give for `CCCC[C@H](CN(O)C=O)C(=O)N[C@H](C(=O)OC1CCCCC1)C(C)(C)C` [Example 15, 2S-{2R-[(Formyl-hydroxy-amino)-methyl]-hexanoylamino}-3,3-dimethyl Butyric Acid Cyclohexyl Ester] here?
Answer: 75%

Question: For `CCCC[C@H](CN(O)C=O)C(=O)N[C@H](C(=O)OCCOC)C(C)(C)C` [Example 16, 2S-{2R-[(Formyl-hydroxy-amino)-methyl]-hexanoylamino}-3,3-dimethyl Butyric Acid 2-methoxy-ethyl Ester], which activity at 6 µM [1] is on record?
Answer: 89%

Question: With `CCCC[C@H](CN(O)C=O)C(=O)N[C@H](C(=O)OCC1CCCC1)C(C)(C)C` [Example 18, 2S-{2R-[(Formyl-hydroxy-amino)-methyl]-hexanoylamino}-3,3-dimethyl Butyric Acid Cyclopentylmethyl Ester] as the molecule, how does the activity at 6 µM [1] read?
Answer: 60%

Question: With `CCCC[C@H](CN(O)C=O)C(=O)N[C@@H](Cc1ccccc1)C(=O)OC(C)C` [Example 19, 2S-{2R-[(Formyl-hydroxy-amino)methyl]-hexanoylamino}-3-phenyl-propionic Acid Iso-Propyl Ester] as the molecule, how does the activity at 6 µM [1] read?
Answer: 0%

Question: Which activity at 6 µM [1] does the source give for `CCCC[C@H](CN(O)C=O)C(=O)N[C@H](C(=O)OC)c1ccccc1` [Example 20, S-{2R-[(Formyl-hydroxy-amino)-methyl]-hexanoylamino}-2-phenyl Acetic Acid Methyl Ester] here?
Answer: 53%

Question: Which activity at 6 µM [1] does the source give for `CCCC[C@H](CN(O)C=O)C(=O)N[C@H](C(=O)OC(C)(C)C)c1ccccc1` [Example 21, S-{2R-[(Formyl-hydroxy-amino)-methyl]-hexanoylamino}-2-phenyl Acetic Acid Tert-Butyl Ester] here?
Answer: 90%

Question: For `CCCC[C@H](CN(O)C=O)C(=O)N[C@@H](Cc1ccccc1)C(=O)OC(C)(C)C` [Example 22, 2S-{2R-[(Formyl-hydroxy-amino)-methyl]-hexanoylamino}-3-phenyl-propionic Acid Tert-Butyl Ester], which melting point is on record?
Answer: 95 to 98 °C

Question: What about the activity at 6 µM [1] of the same molecule?
Answer: 53%

Question: With `CCC[C@@H]([C@@H](CC(C)C)C(=O)N[C@@H](COC(C)(C)C)C(=O)OC1CCCC1)N(O)C=O` [Example 23, 3-tert-Butoxy-2S-[3S-(formyl-hydroxy-amino)-2R-isobutyl-hexanoylamino]-propionic Acid Cyclopentyl Ester] as the molecule, how does the activity at 6 µM [1] read?
Answer: 5%

Question: With `CCC[C@@H]([C@@H](Cc1ccccc1)C(=O)N[C@@H](COC(C)(C)C)C(=O)OC1CCCC1)N(O)C=O` [Example 24, 2S-[2R-Benzyl-3S-(formyl-hydroxy-amino)-hexanoylamino]-3-tert-butoxypropionic Acid Cyclopentyl Ester] as the molecule, how does the activity at 6 µM [1] read?
Answer: 0%

Question: With `CCC[C@@H]([C@@H](CC(C)C)C(=O)N[C@H](C(=O)OCC)c1ccccc1)N(O)C=O` [Example 25, S-[3S-(Formyl-hydroxy-amino)-2R-isobutyl-hexanoylamino]-phenyl-acetic Acid Ethyl Ester] as the molecule, how does the activity at 6 µM [1] read?
Answer: 3%

Question: With `CCC[C@@H]([C@@H](CC(C)C)C(=O)N[C@H](C(=O)OCCOC)c1ccccc1)N(O)C=O` [Example 26, S-[3S-(Formyl-hydroxy-amino)-2R-isobutyl-hexanoylamino]-phenyl-acetic Acid Methoxyethyl Ester] as the molecule, how does the activity at 6 µM [1] read?
Answer: 10%

Question: Which activity at 6 µM [1] does the source give for `CCC[C@@H]([C@@H](Cc1ccccc1)C(=O)N[C@@H](Cc1ccccc1)C(=O)OC1CCCC1)N(O)C=O` [Example 27, 2S-[2R-Benzyl-3S-(formyl-hydroxy-amino)hexanoylamino]-3-phenyl-propionic Acid Cyclopentyl Ester] here?
Answer: 0%

Question: For `CCC[C@@H]([C@@H](Cc1ccccc1)C(=O)N[C@H](C(=O)OC1CCCC1)c1ccccc1)N(O)C=O` [Example 28, S-[2R-Benzyl-3S-(formyl-hydroxy-amino)hexanoylamino]-phenyl-acetic Acid Cyclopentyl Ester], which activity at 6 µM [1] is on record?
Answer: 0%

Question: With `CCC[C@@H]([C@@H](Cc1ccccc1)C(=O)N[C@H](C(=O)OCCOC)c1ccccc1)N(O)C=O` [Example 29, S-[2R-Benzyl-3S-(formyl-hydroxy-amino)hexanoylamino]-phenyl-acetic Acid Methoxyethyl Ester] as the molecule, how does the activity at 6 µM [1] read?
Answer: 0%

Question: Which activity at 6 µM [1] does the source give for `CCC[C@@H]([C@@H](CC(C)C)C(=O)N[C@H](C(=O)OCC1CCCC1)c1ccccc1)N(O)C=O` [Example 32, S-[3S-(Formyl-hydroxy-amino)-2R-isobutyl-hexanoylamino]-phenyl-acetic Acid Cyclopentylmethyl Ester] here?
Answer: 8%

Question: Which activity at 6 µM [1] does the source give for `CCC[C@@H]([C@@H](CC(C)C)C(=O)N[C@H](C(=O)OC1CCCC1)c1ccccc1)N(O)C=O` [Example 33, S-[3S-(Formyl-hydroxy-amino)-2R-isobutyl-hexanoylamino]-phenyl-acetic Acid Cyclopentyl Ester] here?
Answer: 0%
